In brackets after ≈: the same amount, converted by molar mass. Structures can show the parent of a compound that is named as a salt. Where two headings read alike, the source gives them in different places.
Key:
[1] = system: A2780 (ovarian) cells; assay: Cytotoxic activity in vitro, growth inhibition test, A2780 (ovarian); assay type: cell-based; settings: Homo sapiens
Description: (§1) was tested, in comparison with doxorubicin, against a variety of human tumors of different histotypes including ovarian carcinoma, lung cancer , breast cancer, cervical carcinoma, colon cancer.
(§2) Cell survival, following test compound exposure, was evaluated by the growth inhibition test, with the exception of small cell lung cancer cell lines (SCLC). Cells in the logarithmic phase of growth were harvested and placed into 6-well. Twenty-four h after seeding, cells were exposed to test compounds for different times. After replacement with drug-free medium, cells were harvested and counted 72 h following compound exposure. In the case of SCLC, MCF-7 and LOVO, the MTT assay has been used and the colorimetric evaluation of survival was performed at the end of the incubation time (24 or 96 h). The results obtained from cytotoxicity experiments are expressed as IC50 (i.e., concentration required for 50% inhibition of cell growth).
(§3) The test compounds were dissolved in distilled water and then diluted in culture medium.

[2] = system: A431 (cervix) cells; assay: Cytotoxic activity in vitro, growth inhibition test, A431 (cervix); assay type: cell-based; settings: Homo sapiens
Description: as §1, §2, §3

[3] = system: LOVO (colon) cells; assay: Cytotoxic activity in vitro, MTT assay, LOVO (colon); assay type: cell-based; settings: Homo sapiens
Description: as §1, §2, §3

[4] = system: H-460 (non-small cell lung cancer) cells; assay: Cytotoxic activity in vitro, growth inhibition test, H-460 (non-small cell lung cancer); assay type: cell-based; settings: Homo sapiens
Description: as §1, §2, §3

[5] = system: POVD (small cell lung cancer) cells; assay: Cytotoxic activity in vitro, MTT assay, POVD (small cell lung cancer); assay type: cell-based; settings: Homo sapiens
Description: as §1, §2, §3

[6] = system: human small cell lung carcinoma POVD; assay: Effect against human small cell lung carcinoma POVD (in vivo), athymic mice; design: species or system human tumor in athymic mice; settings: for antitumor activity (in words): SCLC tumor POVD; for toxicity deaths / tumor inhibition (Tumor Weight Inhibition %, TWI%): i.v., optimal dose: DXR 7 mg/Kg, IIa 8.5 mg/Kg (days 10, 17, 24), IIc 5 mg/Kg (days 10, 14, 17, 21, 24); for tumor inhibition (Tumor Weight Inhibition %, TWI%): determined 7-10 days after last treatment
Description: (§4) For in vivo studies athymic mice were injected subcutaneous with tumor fragments in both flanks. Growth of tumors was followed by twice weekly caliper measurement of length and width. Tumor weight was calculated using the formula: mg=volume in mm^3 =width^2 ×length/2 (considering density=1).
(§5) The test compounds were delivered, at the optimal doses and schedules, intravenously (i.v.) to tumor-bearing mice starting at different times in the different tumors using (see experiments for details). The effects achieved by the treatments were expressed as Tumor Weight Inhibition % (TWI%) in treated versus control mice, determined 7-10 days after the last drug treatment.

[7] = system: MCF-7 (breast) cells; assay: Cytotoxic activity in vitro, MTT assay, MCF-7 (breast); assay type: cell-based; settings: Homo sapiens
Description: as §1, §2, §3

[8] = system: human ovarian carcinoma A2780; assay: Effect against human ovarian carcinoma A2780 (in vivo), athymic mice; design: species or system human tumor in athymic mice; settings: for antitumor activity compared with doxorubicin (in words): against A2780 ovarian carcinoma; for toxicity deaths / tumor inhibition (Tumor Weight Inhibition %, TWI%): i.v., optimal dose: DXR 7 mg/Kg, IIa 8.5 mg/Kg (days 11, 18, 25), IIc 5 mg/Kg (days 11, 15, 18, 21, 25); for tumor inhibition (Tumor Weight Inhibition %, TWI%): determined 7-10 days after last treatment
Description: as §4, §5

[9] = A2780 (ovarian), drug exposure 24 h, read-out: IC50
[10] = A-431, A431 (cervix), drug exposure 24 h, read-out: IC50
[11] = LOVO (colon), drug exposure 24 h, read-out: IC50
[12] = NCI-H460, H-460 (non-small cell lung cancer), drug exposure 24 h, read-out: IC50
[13] = POVD (small cell lung cancer), drug exposure 96 h, read-out: IC50
[14] = MCF7, MCF-7 (breast), drug exposure 24 h, read-out: IC50

Compound	IC50 [1, 9]	IC50 [2, 10]	IC50 [3, 11]	IC50 [4, 12]	IC50 [5, 13]	antitumor activity (in words) [6]	toxicity deaths [6]	tumor inhibition (Tumor Weight Inhibition %, TWI%) [6]	IC50 [7, 14]	antitumor activity compared with doxorubicin (in words) [8]	toxicity deaths [8]	tumor inhibition (Tumor Weight Inhibition %, TWI%) [8]	IC50 ([1]; A2780, 24 h)	IC50 ([2]; A-431, 24 h)	IC50 ([3]; LoVo, 24 h)	IC50 ([4]; NCI-H460, 24 h)	IC50 ([5]; 96 h)	IC50 ([7]; MCF7, 24 h)
C[C@@H]1O[C@@H](O[C@@H]2[C@H](C)O[C@@H](O[C@H]3C[C@](O)(C(=O)CO)Cc4c(O)c5c(c(O)c43)C(=O)c3ccccc3C5=O)C[C@@H]2O)C[C@H](N)[C@@H]1O [IIc, 7-0-[2,6-dideoxy-4-0-(2,3,6-trideoxy-3amino-a-L-lyxo-exopyranosyl)-a-L-lyxo-exopyranosyl]-4-demethoxy-doxorubicinone hydrochloride]	0.005 µg/mL	0.016 µg/mL	0.01 µg/mL	0.01 µg/mL	0.011 µg/mL	very high antitumor activity	0/5	91%	0.0056 µg/mL	antitumor activity greatly superior to that of the parent compund	0/5	99%	–	–	–	–	–	–
C[C@@H]1O[C@@H](O[C@@H]2[C@H](C)O[C@@H](O[C@H]3C[C@](O)(C(=O)CO)Cc4c(O)c5c(c(O)c43)C(=O)c3ccccc3C5=O)C[C@@H]2O)C[C@H](O)[C@@H]1O [IIb, 7-0-[2,6-dideoxy-4-0-(2,6-dideoxy-a-L-lyxo-exopyranosyl)-a-L-lyxo-exopyranosyl]-4-demethoxy-doxorubicinone hydrochloride]	0.01 µg/mL	0.026 µg/mL	0.0085 µg/mL	0.018 µg/mL	0.02 µg/mL	–	–	–	0.015 µg/mL	–	–	–	–	–	–	–	–	–
COc1cccc2c1C(=O)c1c(O)c3c(c(O)c1C2=O)C[C@@](O)(C(=O)CO)C[C@@H]3O[C@H]1C[C@H](N)[C@H](O)[C@H](C)O1 [DXR, doxorubicin, reference compound]	–	–	–	–	–	refractory	0/5	44%	–	–	0/5	68%	0.03 µg/mL (≈ 0.0552 µM)	0.036 µg/mL (≈ 0.0662 µM)	0.01 µg/mL (≈ 0.0184 µM)	0.02 µg/mL (≈ 0.0368 µM)	0.034 µg/mL (≈ 0.0626 µM)	0.01 µg/mL (≈ 0.0184 µM)
CC(=O)[C@]1(O)Cc2c(O)c3c(c(O)c2[C@@H](O[C@H]2C[C@H](O)[C@H](O[C@H]4C[C@H](N)[C@H](O)[C@H](C)O4)[C@H](C)O2)C1)C(=O)c1ccccc1C3=O [IIa, 7-0-[2,6-dideoxy-4-0-(2,3,6-trideoxy-3-amino-a-L-lyxo-exopyranosyl)-a-L-lyxo-exopyranosyl]-4-demethoxy-daunorubicinone hydrochloride]	0.001 µg/mL	0.012 µg/mL	0.0065 µg/mL	0.015 µg/mL	0.015 µg/mL	very high antitumor activity	0/5	80%	0.01 µg/mL	at least the same effectiveness than doxorubicin	0/5	75%	–	–	–	–	–	–
